Reference: publication PMC8344021, “Discovery of Small Molecule Bak Activator for Lung Cancer Therapy” (Theranostics, 2021)

Tests used:
[1] = system: Bak oligomerization in A549 cells; assay: Bak oligomerization by cross-linking with BMH; type: cell-based, human; conditions: 1μM, 24h, mitochondrial fraction, Western blot
Protocol: Bak oligomerization was analyzed as described. Briefly, 10 mM Bis (maleimido) hexane (BMH) was added to the mitochondrial fraction dissolved in conjugation buffer (PBS, pH7.2) and 5mM EDTA was added for crosslinking between sulfhydryl groups of Bak proteins. The reaction mixture was incubated for 1h at room temperature. The reaction was stopped by adding quench solution (1M DTT) for 15min at room temperature. The reaction product was subjected to SDS-PAGE gel and analyzed by Western blot using a Bak antibody.
A pivotal step in the apoptosis process is the oligomerization of Bak, [44]. To assess whether BKA-073 affects the ability of Bak to form oligomers in the mitochondrial membrane, a cross-linking study with Bis (maleimido) hexane (BMH) was carried out. […] These findings indicate that BKA-073 can activate Bak through its oligomerization in mitochondria. It is known that formation of Bak oligomers in mitochondria promotes cytochrome c (Cyt c) release to induce apoptosis, [46].

[2] = system: MDA-MB-231, MCF7, HCT-116, Ramos, OPM-1, PANC-1 and U2OS cell lines; assay: Apoptotic cell death in other types of cancer cell lines; type: cell-based, human; conditions: 1μM, 72h
Protocol: Figure S2. BKA-073 induces mitochondrial priming and apoptosis in various type of cancers. (A) Expression levels of Bak were analyzed by Western blot in various type of cancer cell lines. (B-C) Various type of cancer cell lines were treated with BKA -073 (1µM) for 16h or 72h, followed by analysis of dynamic BH3 profiling (B) or apoptotic cell death (C), respectively.
Data represent the mean ± SD, n = 3 per group. ***P < 0.001, by 2-tailed t test.
(1 picture or pasted object on this page, not shown here)
Supplemental Materials and Methods
Small molecule NSC14073 (BKA-073) was obtained from the Drug Synthesis and Chemistry Branch, Developmental Therapeutic Program, Division of Cancer Treatment and Diagnosis, National Cancer Institute (NCI, Bethesda, MD) (http://dtp.nci.nih.gov/RequestCompounds).
Venetoclax (ABT-199, 205807) was purchased from MedKoo Biosciences (Morrisville, NC). […]
Cells were seeded at a density of 5 × 103 per well in 96-well plates and allowed to grow overnight. After treatment with BKA-073, the surviving cell fraction was determined using the sulforhodamine B (SRB) assay as described. Optical density (OD) was measured at 510nm in a microplate reader (Synergy H1, BioTek®, Winooski, VT). […]
Apoptotic cells were detected using Annexin-V Apoptosis Detection Kit (556547, BD Biosciences, San Jose, CA) according to the manufacturer’s instructions. […]

`COc1ccc2nc3ccccc3c(NCCNCC(C)O)c2c1` (centres unmarked) [BKA-073] was tested, and the Bak oligomerization [1] was “facilitated the formation of Bak dimers and trimers” and the “induction of apoptotic cell death” value [2] was “potently induced”.
